In assay [1] the test system is U87MG glioblastoma tumors. In words: U87MG glioblastoma tumor xenograft model (tumor growth inhibition). Format: in vivo, athymic nude mice. Particulars: for decrease of mean tumor volume compared to vehicle-treated group: Day 21, p<0.001. Here is the method: The U87MG glioblsatoma cell line (Piedmont Research Center LLC) expresses the c-Met receptor and responds to Human Growth Factor (HGF). This study investigated whether treatment with an inhibitor of c-Met is efficacious against the U87MG glioblastoma tumor xenograft model. This study utilized a tumor growth inhibition (TGI) assay to test per os (p.o.) compound monotherapy in groups of fifteen nude mice. A control group was treated with vehicle, 20% Hydroxypropyl Beta-Cyclodextrin (HPBCD). All treatments began on Day 1 (D1) in mice bearing established subcutaneous (s.c.) U87MG tumors.
Female athymic nude mice (Harlan) were 10-11 weeks old with a BW range of 18.1-25.0 g on D1 of the study. The animals were fed ad libitum water (reverse osmosis, 1 ppm Cl) and NIH 31 Modified and Irradiated Lab Diet® consisting of 18.0% crude protein, 5.0% crude fat, and 5.0% crude fiber. The mice were housed on irradiated ALPHA-dri® Bed-o-cobs® Laboratory Animal Bedding in static microisolators on a 12-hour light cycle at 21-22° C. (70-72° F.) and 40-60% humidity. All animals were housed in a Laboratory Animal Medicine facility that is fully accredited by the American Association for Assessment and Accreditation of Laboratory Animal Care (AAALAC). All procedures involving animals were conducted in compliance with the NIH Guide for the Care and Use of Laboratory Animals and all protocols were approved by an Internal Animal Care and Use Committee (IACUC).
Xenografts were initiated from U87MG human glioblastoma tumor fragments maintained by serial transplantation in athymic nude mice. Each test mouse received a subcutaneous U87MG tumor fragment (1 mm^3) implanted in the right flank, and the growth of tumors was monitored as the average size approached 200 mm^3. Twelve days later, on Day 1 of the study, the animals were sorted into 4 groups (n=12-15 mice/group) with individual tumor volumes ranging from 172-352 mm^3 and group mean tumor volumes of 216 mm^3. Tumor volume was calculated using the formula:
[formula] where w=width and l=length in mm of the tumor. Tumor weight may be estimated with the assumption that 1 mg is equivalent to 1 mm^3 of tumor volume. Drug Treatment
Dosing solutions of compounds of the present invention were prepared fresh weekly in a vehicle consisting of 20% Hydroxypropyl Beta-Cyclodextrin (HPBCD) in water. In all groups, the dosing volume of 0.2 mL/20-g mouse was scaled to the body weight of each animal. Doses were given to allow for the HCl salt form of the compound.
TGI was calculated from the difference between the median tumor volumes of vehicle-treated and drug-treated mice, expressed as a percentage of the median tumor volume of the vehicle-treated control group, by the following relation:
The MTV (n) is defined as the median tumor volume (MTV) for the number of animals, n, remaining in the study on that day.
Animals were weighed daily for the first five days of the study and then twice weekly. The mice were examined frequently for overt signs of any adverse, drug-related side effects, and clinical signs of toxicity were recorded when observed. Acceptable toxicity is defined as a group mean body-weight (BW) loss of less than 20% during the study, and not more than one treatment-related (TR) death among ten animals. A death is classified as TR if it is attributable to treatment side effects as evidenced by clinical signs and/or necropsy, or due to unknown causes during the dosing period or within 10 days of the last dose. A death is classified as non treatment-related (NTR) if there is no evidence that the death was related to drug side effects. A death is classified as non treatment-related unknown (NTRu) if the cause of death is unknown.
The Mann-Whitney U-test, for analysis of medians, was used to determine the statistical significance of the difference between the MTVs. Prism 3.03 (GraphPad) for Windows was used for the statistical analyses and graphic presentations. […]

The target of assay [2] is T1, c-Met (Homo sapiens, UniProt P08581). In words: Cell based ELISA assay for HGF stimulated c-Met phosphorylation in S114 cells. The arrangement: expressed in transfected cells; host or cells: S114 (murine NIH 3T3 derived). Particulars: read-out: c-Met Cell ELISA IC-50. Here is the method:
A cell based ELISA assay was developed to evaluate the ability of compounds to inhibit HGF stimulated c-Met phosphorylation in cells.
S114 cells were seeded to a 96 well tissue culture treated dish at a concentration of 5×10^4 per well. After a 16-20 hour incubation, culture medium was removed and replaced with serum free medium supplemented with 0.5% BSA. Test compound was then added and incubated with the cells for 60 minutes, followed by the addition of 1 μl HGF at […] for 15 minutes. […] Following another 1 hour incubation at room temperature the plates were washed three times with Delfia wash buffer (Perkin Elmer). After the final wash, […] of Delfia enhancer solution (Perkin Elmer) was added and allowed to incubate for 60 minutes. Plates were read on an LJL Analyst instrument (Molecular Devices; Sunnyvale, Calif.) with filter settings of 360 excitation, 620 emission, and 410 dichroic. IC50 values were calculated using Graphpad Prism software (Graphpad Software; San Diego, Calif.).
A general note: An ELISA detects its analyte on a solid surface through an enzyme-linked reagent.
Target sequence in this assay (P08581 25-1390): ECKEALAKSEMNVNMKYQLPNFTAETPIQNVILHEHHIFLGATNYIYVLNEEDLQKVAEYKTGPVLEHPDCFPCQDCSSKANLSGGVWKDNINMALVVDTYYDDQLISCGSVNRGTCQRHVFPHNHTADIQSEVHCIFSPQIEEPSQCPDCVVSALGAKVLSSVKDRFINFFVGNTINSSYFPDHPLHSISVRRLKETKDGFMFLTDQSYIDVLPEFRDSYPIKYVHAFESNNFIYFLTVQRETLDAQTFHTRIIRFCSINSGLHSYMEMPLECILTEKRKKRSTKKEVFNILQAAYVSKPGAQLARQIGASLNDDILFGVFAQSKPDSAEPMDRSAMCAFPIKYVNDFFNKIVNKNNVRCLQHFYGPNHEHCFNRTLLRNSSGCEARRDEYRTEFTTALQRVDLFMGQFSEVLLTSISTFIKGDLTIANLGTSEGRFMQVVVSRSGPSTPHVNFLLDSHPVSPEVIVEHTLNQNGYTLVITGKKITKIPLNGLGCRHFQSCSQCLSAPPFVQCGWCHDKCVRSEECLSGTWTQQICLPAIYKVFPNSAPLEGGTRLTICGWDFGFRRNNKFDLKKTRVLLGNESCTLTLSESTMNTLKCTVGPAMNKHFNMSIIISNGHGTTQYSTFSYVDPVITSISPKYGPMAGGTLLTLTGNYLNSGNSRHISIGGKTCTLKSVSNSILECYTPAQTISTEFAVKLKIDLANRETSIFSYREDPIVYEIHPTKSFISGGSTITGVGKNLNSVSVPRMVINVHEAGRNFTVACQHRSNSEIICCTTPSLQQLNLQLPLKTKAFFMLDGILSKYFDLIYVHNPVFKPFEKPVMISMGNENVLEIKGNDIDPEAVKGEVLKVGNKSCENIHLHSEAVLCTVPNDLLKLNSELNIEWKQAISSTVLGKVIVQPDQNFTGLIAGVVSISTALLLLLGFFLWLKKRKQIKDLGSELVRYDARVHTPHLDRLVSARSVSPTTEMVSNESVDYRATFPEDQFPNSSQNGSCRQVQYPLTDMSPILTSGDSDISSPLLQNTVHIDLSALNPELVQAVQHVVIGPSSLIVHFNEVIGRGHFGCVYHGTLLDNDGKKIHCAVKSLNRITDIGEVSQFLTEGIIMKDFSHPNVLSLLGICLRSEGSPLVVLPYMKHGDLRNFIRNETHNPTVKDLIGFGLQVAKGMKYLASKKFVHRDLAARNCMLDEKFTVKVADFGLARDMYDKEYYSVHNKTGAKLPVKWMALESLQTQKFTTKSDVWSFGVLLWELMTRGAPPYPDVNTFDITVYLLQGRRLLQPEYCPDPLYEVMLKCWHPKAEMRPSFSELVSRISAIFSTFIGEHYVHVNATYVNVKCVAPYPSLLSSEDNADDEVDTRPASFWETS

Assay [3] addresses T1, c-Met. The assay can be described thus: Delfia autophosphorylation kinase assay on the c-Met. Set-up: The purified His6 tagged cytoplasmic domain of c-Met was diluted to a concentration of 500 ng/ml; host or cells: Sf9 insect cells (baculovirus, pFastBacHTa). Format: biochemical. The following applies: His6 tagged cytoplasmic domain of c-Met, 1 μM ATP; read-out: cMet Delfia autophos IC-50. The essentials:
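Time-resolved fluorescence tracked autophosphorylation of the His6-tagged c-Met cytoplasmic domain, dispensed at 500 ng/ml onto nickel-chelate plates. Reaction buffer held 1 μM ATP, 10 mM MgCl2, vanadate and DTT at pH 8.0, for 1 h at room temperature.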
Target sequence in this assay (P08581 956-1390 limits assumed): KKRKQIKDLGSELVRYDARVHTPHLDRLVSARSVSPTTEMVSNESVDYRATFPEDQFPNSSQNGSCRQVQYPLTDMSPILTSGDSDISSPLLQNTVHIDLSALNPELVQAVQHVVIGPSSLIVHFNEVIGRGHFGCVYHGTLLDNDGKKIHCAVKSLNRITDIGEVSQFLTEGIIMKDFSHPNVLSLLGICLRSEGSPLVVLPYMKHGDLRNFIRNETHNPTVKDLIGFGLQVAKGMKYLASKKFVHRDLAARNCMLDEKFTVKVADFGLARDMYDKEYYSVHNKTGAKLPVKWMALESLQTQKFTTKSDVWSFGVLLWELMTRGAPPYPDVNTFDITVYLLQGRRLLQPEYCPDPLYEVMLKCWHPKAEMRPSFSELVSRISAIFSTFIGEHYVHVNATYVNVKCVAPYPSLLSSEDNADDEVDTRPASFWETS

pIC50: −log10 of the molar value.

With `Cn1cc(-c2ccc3nnc(Cc4ccc5ncccc5c4)n3n2)cn1` [Example 1, 6-[6-(1-Methyl-1H-pyrazol-4-yl)-[1,2,4]triazolo[4,3-b]pyridazin-3-ylmethyl]-quinoline], the “decrease of mean tumor volume compared to vehicle-treated group” value was 66% in assay [1] (30 mg/kg p.o. b.i.d., 21 consecutive days) and 97% in assay [1] (50 mg/kg p.o. b.i.d., 21 consecutive days). Also, the tumor regression result in assay [1] (50 mg/kg p.o. b.i.d., 21 days) was “Tumor regression was observed”. For the same molecule, the “inhibition of growth of U87MG tumors” value in assay [1] (30 and 50 mg/kg p.o. b.i.d., 21 consecutive days) was “statistically significant, dose-dependent inhibition of growth”.
`Cn1ccc2cc(-c3ccc4nnc(Cc5ccc6ncccc6c5)n4n3)ccc21` [Example 85, 6-[6-(1-Methyl-1H-indol-5-yl)-[1,2,4]triazolo[4,3-b]pyridazin-3-ylmethyl]-quinoline]: the pIC50 on c-Met [2] was 6.59; at c-Met [3] it was 7.28.
As to `Cc1cc(-c2ccc3nnc(Cc4ccc5ncccc5c4)n3n2)ccn1` [Example 87, 6-[6-(2-Methyl-pyridin-4-yl)-[1,2,4]triazolo[4,3-b]pyridazin-3-ylmethyl]-quinoline], the pIC50 was 8.40 at c-Met [2] and 9.22 on c-Met [3].
On to `Nc1ccc(-c2ccc3nnc(Cc4ccc5ncccc5c4)n3n2)cn1` [Example 88, 5-(3-Quinolin-6-ylmethyl-[1,2,4]triazolo[4,3-b]pyridazin-6-yl)-pyridin-2-ylamine], for which the values for the pIC50 at c-Met [2] and at c-Met [3] were 7.30 and 8.70, respectively.
On to `COc1ccc(-c2ccc3nnc(Cc4ccc5ncccc5c4)n3n2)cn1` [Example 89, 6-[6-(6-Methoxy-pyridin-3-yl)-[1,2,4]triazolo[4,3-b]pyridazin-3-ylmethyl]-quinoline], for which the pIC50 at c-Met [2] is 6.64; at c-Met [3] it was 8.40.
With `O=c1ccc(-c2ccc3nnc(Cc4ccc5ncccc5c4)n3n2)c[nH]1` [Example 90, 5-(3-Quinolin-6-ylmethyl-[1,2,4]triazolo[4,3-b]pyridazin-6-yl)-1H-pyridin-2-one], the pIC50 on c-Met [2] was 6.27; at c-Met [3] it was 8.52.
Regarding `Cc1nc2ccc(Cc3nnc4ccc(-c5cccnc5)nn34)cc2s1` [Example 92, 3-(2-Methyl-benzothiazol-6-ylmethyl)-6-pyridin-3-yl-[1,2,4]triazolo[4,3-b]pyridazine], the pIC50 was 8.00 at c-Met [2] and 8.40 at c-Met [3].
Take `Cn1cc(-c2ccc3nnc(Cc4ccc5nc(N)sc5c4)n3n2)cn1` [Example 93, 6-[6-(1-Methyl-1H-pyrazol-4-yl)-[1,2,4]triazolo[4,3-b]pyridazin-3-ylmethyl]-benzothiazol-2-ylamine]: the figures for the pIC50 at c-Met [2] and at c-Met [3] were 6.89 and 8.40, respectively.
Turning to `CN(C)c1nc2ccc(Cc3nnc4ccc(-c5cnn(C)c5)nn34)cc2s1` [Example 94, Dimethyl-{6-[6-(1-methyl-1H-pyrazol-4-yl)-[1,2,4]triazolo[4,3-b]pyridazin-3-ylmethyl]-benzothiazol-2-yl}-amine], the pIC50 on c-Met [2] is 6.19; at c-Met [3], 7.52.
Take `Clc1cc(-c2ccc3nnc(Cc4ccc5ncccc5c4)n3n2)ccn1` [Example 95, 6-[6-(2-Chloro-pyridin-4-yl)-[1,2,4]triazolo[4,3-b]pyridazin-3-ylmethyl]-quinoline]: the results for the pIC50 on c-Met [2] and on c-Met [3] were 8.05 and 9.00, respectively.
Taken in the same sequence, the figures for `N#Cc1ccc(-c2ccc3nnc(Cc4ccc5ncccc5c4)n3n2)cn1` [Example 96, 5-(3-Quinolin-6-ylmethyl-[1,2,4]triazolo[4,3-b]pyridazin-6-yl)-pyridine-2-carbonitrile] were 6.80 and 7.92.
Regarding `C#Cc1cc(-c2ccc3nnc(C(F)(F)c4ccc5ncccc5c4)n3n2)ccn1` [Example 100, 6-{[6-(2-Ethynyl-pyridin-4-yl)-[1,2,4]triazolo[4,3-b]pyridazin-3-yl]-difluoro-methyl}-quinoline], the pIC50 at c-Met [2] was 6.85; on c-Met [3] it was 8.30.
`FC(F)(c1ccc2ncccc2c1)c1nnc2ccc(-c3ccnc(Cl)c3)nn12` [Example 100b, 6-{[6-(2-Chloro-pyridin-4-yl)-[1,2,4]triazolo[4,3-b]pyridazin-3-yl]-difluoro-methyl}-quinoline]: the results for the pIC50 on c-Met [2] and at c-Met [3] were 7.47 and 8.70, respectively.
With `N#Cc1cc(-c2ccc3nnc(C(F)(F)c4ccc5ncccc5c4)n3n2)ccn1` [Example 101, 4-[3-(Difluoro-quinolin-6-yl-methyl)-[1,2,4]triazolo[4,3-b]pyridazin-6-yl]-pyridine-2-carbonitrile], the pIC50 at c-Met [2] is 6.92; at c-Met [3], 9.00.
For the molecule `CN1CCN(C(=O)c2ccc(-c3ccc4nnc(C(F)(F)c5ccc6occc6c5)n4n3)s2)CC1` [Example 102, {5-[3-(Benzofuran-5-yl-difluoro-methyl)-[1,2,4]triazolo[4,3-b]pyridazin-6-yl]-thiophen-2-yl}-(4-methyl-piperazin-1-yl)-methanone], the pIC50 on c-Met [2] is 7.10; on c-Met [3], 8.52.
With `CN1CCN(C(=O)c2ccc(-c3ccc4nnc(C(F)(F)c5ccc6c(c5)CCO6)n4n3)s2)CC1` [Example 103, (5-{3-[(2,3-Dihydro-benzofuran-5-yl)-difluoro-methyl]-[1,2,4]triazolo[4,3-b]pyridazin-6-yl}-thiophen-2-yl)-(4-methyl-piperazin-1-yl)-methanone], the pIC50 at c-Met [2] is 6.68; on c-Met [3], 8.40.

The record behind these values is patent US8173654B2, “Triazolopyridazine compounds” (Janssen Pharmaceutica N.V., priority 2005, dated 2012).
